Test results as given in ChEMBL document CHEMBL6109165, “Novel Triazole-Substituted Imidazo[1,2-a]Pyrimidine Compounds as cGAS inhibitors” (ACS Med Chem Lett, 2025).
Values after ≈ are worked out from the molar mass of the structure shown.

Assays:
[1] = Solubility of compound in FaSSIF at pH 6.5 measured after 4 hrs by HPLC-UV analysis; format: physicochemical
[2] = target: Cyclic GMP-AMP synthase (Homo sapiens) (UniProt Q8N884); assay: Inhibition of human recombinant cGAS (157 to 522 residues) extracted from Escherichia coli BL21(DE3)cells using GTP/ATP as substrate incubated for 1 to 2 hrs by Rapidfire 300 mass spectrometric analysis; conditions: time 1-2 hrs
[3] = target: Cyclic GMP-AMP synthase (Homo sapiens) (UniProt Q8N884); assay: Inhibition of cGAS in human whole blood incubated for 6 hrs by cytometric bead array; format: tissue-based

Sequence of Cyclic GMP-AMP synthase (Homo sapiens) (Q8N884 whole entry, the tested form may be a part): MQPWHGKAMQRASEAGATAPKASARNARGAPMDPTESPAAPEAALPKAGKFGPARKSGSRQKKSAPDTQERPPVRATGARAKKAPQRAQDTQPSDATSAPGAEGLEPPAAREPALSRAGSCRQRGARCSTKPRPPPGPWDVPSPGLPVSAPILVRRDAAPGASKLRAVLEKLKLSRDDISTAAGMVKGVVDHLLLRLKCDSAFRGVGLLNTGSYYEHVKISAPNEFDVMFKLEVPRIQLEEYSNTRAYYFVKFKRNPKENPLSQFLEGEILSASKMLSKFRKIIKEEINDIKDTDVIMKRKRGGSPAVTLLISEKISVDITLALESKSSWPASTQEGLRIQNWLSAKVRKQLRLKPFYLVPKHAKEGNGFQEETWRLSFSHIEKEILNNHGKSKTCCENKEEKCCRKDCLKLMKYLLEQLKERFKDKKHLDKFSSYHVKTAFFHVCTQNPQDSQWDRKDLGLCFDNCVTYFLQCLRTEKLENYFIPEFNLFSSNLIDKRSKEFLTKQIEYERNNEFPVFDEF

solubility at 4 h [1] [µg/mL] | pXC50 [2] | pXC50 [3] | SMILES
4 (≈ 12.5 µM) | – | – | FC(F)(F)c1n[nH]c(-c2nc3ncccn3c2-c2c[nH]cn2)n1
> 1000 | 6.1 | – | O=P(O)(O)OCn1nc(C(F)(F)F)nc1-c1nc2ncc(F)cn2c1-c1cnc[nH]1
5 (≈ 14.8 µM) | 8.4 | 6.5 | Fc1cnc2nc(-c3nc(C(F)(F)F)n[nH]3)c(-c3c[nH]cn3)n2c1
> 1000 | 7.5 | 6.5 | O=C(CCCOP(=O)(O)O)OCn1cnc(-c2c(-c3nc(C(F)(F)F)nn3COC(=O)CCCOP(=O)(O)O)nc3ncccn23)c1.O=C(O)C(F)(F)F
